Measurements as given in patent publication US12532889B2, “Herbicidal compositions comprising glufosinate” (BASF SE, priority 2023, dated 2026).
“And” between values parts separate entries of the source, which are not always exact repeats. Equal values may be shown once.

How the values were obtained:
Assay in all cases: Post-emergence application in field trials (Example A)
Type in all cases: in vivo
[1] = system: DIGHO (Digitaria horizontalis); settings: Table 1.4, DIGHO growth stage 24, 14 DAT, water 200 l/ha
Method: (§1) In the examples below, using the method of S. R. Colby (1967) “Calculating synergistic and antagonistic responses of herbicide combinations”, Weeds 15, p. 22ff., the value E, which is expected if the activity of the individual active compounds is only additive, was calculated:
(§2) [formula] • where • X=percent activity using active herbicide A at an application rate a; • Y=percent activity using active herbicide B (e.g. glufosinate) at an application rate b; • E=expected activity (in %) by A+B at application rates a+b.
(§3) If the value found experimentally is higher than the value E calculated according to Colby, a synergistic effect is present.
(§4) On field test sites, natural weed infestation or seeded weeds were treated post-emergence of the weeds.
(§5) In the field trials, the weeds were treated as indicated below.
(§6) In the following experiments, the herbicidal activity for the individual herbicidal compositions (solo and mixture applications) was assessed at the indicated days after treatment (DAT). The assessments for the damage on undesired weeds caused by the composition was carried out using a scale from 0 to 100%, compared to the untreated control plants. Here, 0 means no damage and 100 means complete destruction of the plants.

CYPIR (Cyperus iria) = settings: Table 2.1, CYPIR growth stage 13-14, height 3-5 cm, 14 DAT, water 300 l/ha
Method: as §1, §2, §3, §4, §5, §6

[2] = system: BOILF (Spermacoce latifolia); settings: Table 1.16, A-1 25, B-2 400 g ai/ha, 21 DAT, water 200 l/ha
Method: as §1, §2, §3, §4, §5, §6

[3] = system: HORVW (Hordeum vulgare (winter barley)); settings: B-2 400 g ai/ha, growth stage 23-29, height 20-25 cm
Method: as §1, §2, §3, §4, §5, §6

[4] = system: POLCO (Polygonum convolvulus); settings: Table 3.2, A-1 12.5, B-2 500 g ai/ha, 14 DAT, water 100 l/ha
Method: as §1, §2, §3, §4, §5, §6

[5] = system: LOLMU (Lolium multiflorum)
Method: as §1, §2, §3, §4, §5, §6

[6] = system: DIGSA (Digitaria sanguinalis); settings: for % Herbicidal activity: B-2 400 g ai/ha, height 10-15 cm; for % herbicidal activity: Table 4.1, DIGSA height 2-8 cm, water 140 l/ha
Method: as §1, §2, §3, §4, §5, §6

[7] = system: AMAPA (Amaranthus palmeri); settings: Table 1.27, AMAPA height 30 cm, 21 DAT, water 200 l/ha
Method: as §1, §2, §3, §4, §5, §6

[8] = system: BRAPL (Brachiaria plantaginea); settings: BRAPL growth stage 24, A-1 50, B-2 400 g ai/ha, water 200 l/ha
Method: as §1, §2, §3, §4, §5, §6

ERISS (Erigeron sp.) = settings: Table 1.8, ERISS height 30-50 cm, 14 DAT, water 200 l/ha
Method: as §1, §2, §3, §4, §5, §6

[9] = system: ECHCG (Echinocloa crus-galli); settings: B-2 400 g ai/ha, growth stage 23-30, height 15-20 cm
Method: as §1, §2, §3, §4, §5, §6

ZEAMX (Zea mays) = system: ZEAMX (Zea mays)
Method: as §1, §2, §3, §4, §5, §6

[10] = 7 DAT, B-2 400 g ai/ha, growth stage 22-25, height 20-25 cm

Compound: CP(=O)(O)CCC(N)C(=O)O (stereo not drawn) [B-2, glufosinate-ammonium]
- % herbicidal activity ([1]; A-1 25, B-2 400 g ai/ha): 30%
- % herbicidal activity ([1]; A-1 50, B-2 400 g ai/ha): 30%
- % herbicidal activity (CYPIR (Cyperus iria); A-1 12.5, B-2 500 g ai/ha): 77%
- % herbicidal activity (CYPIR (Cyperus iria); A-1 25, B-2 500 g ai/ha): 77%
- % herbicidal activity [2]: 73%
- % Herbicidal activity ([3]; 7 DAT): 60%
- % Herbicidal activity ([3]; 21 DAT): 30%
- % herbicidal activity ([3]; 21 DAT): 40%
- % herbicidal activity [4]: 28%
- % Herbicidal activity [5, 10]: 70%
- % herbicidal activity [5, 10]: 50%
- % herbicidal activity ([5]; 21 DAT, B-2 400 g ai/ha, growth stage 22-25, height 20-25 cm): 30%
- % Herbicidal activity ([5]; 28 DAT, B-2 400 g ai/ha, growth stage 22-25, height 20-25 cm): 40%
- % herbicidal activity ([5]; Table 1.28, LOLMU growth stage 11-23, height 5-10 cm, A-1 25, B-2 400 g ai/ha, 28 DAT, water 200 l/ha): 68%
- % Herbicidal activity ([6]; 20 DAT, growth stage 21-22): 20%
- % Herbicidal activity ([6]; 21 DAT, growth stage 22): 75%
- % Herbicidal activity ([6]; 41 DAT, growth stage 22): 55%
- % herbicidal activity ([6]; A-1 12.5, B-2 655 g ai/ha, 21 DAT): 49%
- % herbicidal activity ([6]; A-1 25, B-2 655 g ai/ha, 21 DAT): 49%
- % herbicidal activity ([6]; A-1 50, B-2 655 g ai/ha, 21 DAT): 49%
- % herbicidal activity ([7]; A-1 12.5, B-2 400 g ai/ha): 20%
- % herbicidal activity ([7]; A-1 25, B-2 400 g ai/ha): 20%
- % herbicidal activity ([8]; Table 1.18, 21 DAT): 18%
- % herbicidal activity ([8]; Table 1.4, 14 DAT): 55%
- % herbicidal activity (ERISS (Erigeron sp.); A-1 25, B-2 400 g ai/ha): 40%
- % herbicidal activity (ERISS (Erigeron sp.); A-1 50, B-2 400 g ai/ha): 40%
- % Herbicidal activity ([9]; 7 DAT): 60%
- % herbicidal activity ([9]; 7 DAT): 40% and 60%
- % Herbicidal activity ([9]; 21 DAT): 60%
- % herbicidal activity ([9]; 21 DAT): 60%
- % Herbicidal activity ([9]; 28 DAT): 60%
- % herbicidal activity (ZEAMX (Zea mays); 7 DAT, B-2 400 g ai/ha, growth stage 15-16, height 50-60 cm): 75%
- % Herbicidal activity (ZEAMX (Zea mays); 21 DAT, B-2 400 g ai/ha, growth stage 15-16, height 27-33 cm): 65%
- % herbicidal activity (ZEAMX (Zea mays); 21 DAT, B-2 400 g ai/ha, growth stage 15-16, height 50-60 cm): 75%
- % herbicidal activity (ZEAMX (Zea mays); 28 DAT, B-2 400 g ai/ha, growth stage 15-16, height 50-60 cm): 40%
- % herbicidal activity (ZEAMX (Zea mays); Table 1.12, ZEAMX volunteer corn, A-1 50, B-2 400 g ai/ha, 21 DAT, water 100 l/ha): 47%
